For 17 compounds, IC50 results are on record in patent US20260232658A1, “AZETIDINYL BENZOXAZOLE COMPOUNDS AND THEIR USE AS MER AND AXL INHIBITORS” (DONG-A ST CO., LTD., priority 2022, published 2026).

As a reminder, the IC50 is the point on the concentration scale where inhibition reaches its midpoint.

Test [1] concerns the target T1, human MER (528-end) (Homo sapiens, UniProt Q12866).
T1 construct: human MER (528-end); purchased Carnabio, Japan
T1 sequence (Q12866 528-999 limits assumed): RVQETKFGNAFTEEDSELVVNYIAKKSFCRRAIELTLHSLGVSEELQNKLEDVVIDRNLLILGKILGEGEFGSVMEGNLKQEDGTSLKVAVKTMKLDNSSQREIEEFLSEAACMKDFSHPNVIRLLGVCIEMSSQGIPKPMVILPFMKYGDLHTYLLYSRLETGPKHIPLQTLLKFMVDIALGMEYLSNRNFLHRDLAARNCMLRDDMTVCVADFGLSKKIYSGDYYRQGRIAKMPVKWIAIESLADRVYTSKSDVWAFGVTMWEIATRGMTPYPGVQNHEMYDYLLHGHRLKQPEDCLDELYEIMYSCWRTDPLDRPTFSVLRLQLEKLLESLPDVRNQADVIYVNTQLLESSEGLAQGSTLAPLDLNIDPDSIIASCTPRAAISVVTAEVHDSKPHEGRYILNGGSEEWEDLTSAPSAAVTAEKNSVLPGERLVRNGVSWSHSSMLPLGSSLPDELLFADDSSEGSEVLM
In words: HTRF kinase activity biochemical assay, MER.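 Note: phosphorylation of a biotin-tagged tyrosine kinase substrate detected by Eu3+-cryptate antibody and streptavidin-XL665 time-resolved fluorescence, read after 1 h at room temperature.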 Particulars: recombinant kinase, 10 uM ATP, 30 minutes pre-incubation; read-out: HTRF MERTK IC50.

For test [2], the target named is T2, human AXL (473-end) (Homo sapiens, UniProt P30530).
T2 construct: human AXL (473-end); purchased SignalChem, Canada
T2 sequence (P30530 473-894 limits assumed): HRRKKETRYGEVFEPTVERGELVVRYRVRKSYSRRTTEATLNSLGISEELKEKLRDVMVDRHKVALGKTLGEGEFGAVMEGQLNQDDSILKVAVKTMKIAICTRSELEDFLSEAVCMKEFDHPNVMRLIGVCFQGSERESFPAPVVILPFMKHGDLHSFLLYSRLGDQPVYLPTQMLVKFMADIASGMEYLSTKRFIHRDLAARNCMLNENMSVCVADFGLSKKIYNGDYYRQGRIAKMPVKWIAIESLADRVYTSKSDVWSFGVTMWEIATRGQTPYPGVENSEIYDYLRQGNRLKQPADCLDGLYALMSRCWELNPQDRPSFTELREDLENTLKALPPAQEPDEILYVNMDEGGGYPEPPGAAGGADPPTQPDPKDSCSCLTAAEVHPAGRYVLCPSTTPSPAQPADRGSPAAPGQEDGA
In words: HTRF kinase activity biochemical assay, AXL.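 Note: phosphorylation of a biotinylated tyrosine kinase substrate detected via Eu3+-cryptate anti-TK antibody and streptavidin-XL665, fluorescence read after a 1 h incubation at room temperature.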 Particulars: recombinant kinase, 10 uM ATP, 30 minutes pre-incubation; read-out: HTRF AXL IC50. A general note: In TR-FRET formats the signal depends on donor and acceptor labels being close together.

The target in test [3] is T3, TYRO3 (455-end) (Homo sapiens, UniProt Q06418).
T3 construct: TYRO3 (455-end); purchased SignalChem, Canada
T3 sequence (Q06418 455-890 limits assumed): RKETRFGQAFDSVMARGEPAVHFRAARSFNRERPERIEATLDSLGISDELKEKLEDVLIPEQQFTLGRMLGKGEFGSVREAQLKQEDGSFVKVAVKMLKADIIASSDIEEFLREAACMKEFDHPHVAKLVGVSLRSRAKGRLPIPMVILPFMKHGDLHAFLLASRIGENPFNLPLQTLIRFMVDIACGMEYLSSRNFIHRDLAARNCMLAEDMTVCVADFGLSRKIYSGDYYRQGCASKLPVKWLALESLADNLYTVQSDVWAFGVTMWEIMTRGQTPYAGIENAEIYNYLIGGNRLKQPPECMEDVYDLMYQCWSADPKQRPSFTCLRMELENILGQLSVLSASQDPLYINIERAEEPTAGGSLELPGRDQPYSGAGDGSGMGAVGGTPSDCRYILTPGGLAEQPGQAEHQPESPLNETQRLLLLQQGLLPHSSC
Put plainly: HTRF kinase activity biochemical assay, TYRO3.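 Note: biotinylated tyrosine kinase substrate phosphorylation detected via streptavidin-XL665 and Eu3+-cryptate anti-phospho antibody time-resolved fluorescence, read after 1 h detection at room temperature, 384-well format.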 Particulars: recombinant kinase, 10 uM ATP, 30 minutes pre-incubation; read-out: HTRF TYRO IC50.

Regarding `Cn1cc(COc2ccc3nc(N4CC(c5cnc(Nc6cnn(C)c6)c(C(N)=O)n5)C4)oc3c2)cn1` [Example 97, 3-[(1-methyl-1H-pyrazol-4-yl)amino]-6-(1-{6-[(1-methyl-1H-pyrazol-4-yl)methoxy]-1,3-benzoxazol-2-yl}azetidin-3-yl)pyrazine-2-carboxamide], the IC50 in test [1] amounted to 1 nM; in test [2], 4 nM; in test [3], 150 nM.

In the case of `Cn1cc(Nc2ncc(C3CN(c4nc5ccc(CC(=O)N6CCCC6)cc5o4)C3)nc2C(N)=O)cn1` [Example 65, 3-[(1-methyl-1H-pyrazol-4-yl)amino]-6-(1-{6-[2-oxo-2-(pyrrolidin-1-yl)ethyl]-1,3-benzoxazol-2-yl}azetidin-3-yl)pyrazine-2-carboxamide], the IC50 was below 1 nM in test [1], 1 nM in test [2] and 1010 nM in test [3].

Regarding `Cn1cc(Nc2ccc(C3CN(c4nc5ccc(OCCC(C)(C)OP(=O)(O)O)cc5o4)C3)nc2C(N)=O)cn1` [Example 109, 4-{[2-(3-{6-carbamoyl-5-[(1-methyl-1H-pyrazol-4-yl)amino]pyridin-2-yl}azetidin-1-yl)-1,3-benzoxazol-6-yl]oxy}-2-methylbutan-2-yl dihydrogen phosphate], the IC50 worked out at 27 nM in test [1], 78 nM in test [2] and 2200 nM in test [3].

In the case of `Cc1ccc2nc(N3CC(c4ccc(Nc5cnn(C)c5)c(C(N)=O)n4)C3)oc2c1` [Example 78, 6-[1-(6-methyl-1,3-benzoxazol-2-yl)azetidin-3-yl]-3-[(1-methyl-1H-pyrazol-4-yl)amino]pyridine-2-carboxamide], the results for the IC50 in test [1], in test [2] and in test [3] were 2 nM, 6 nM and 270 nM, respectively.

For the compound `Cn1cc(Nc2ncc(C3CN(c4nc5ccc(OCCC(C)(C)OC(=O)CNC(=O)OC(C)(C)C)cc5o4)C3)nc2C(N)=O)cn1` [Example 95A, 4-{[2-(3-f{6-carbamoyl-5-[(1-methyl-1H-pyrazol-4-yl)amino]pyrazin-2-yl}azetidin-1-yl)-1,3-benzoxazol-6-yl]oxy}-2-methylbutan-2-yl [(tert-butoxycarbonyl)amino]acetate], the results for the IC50 in test [1], in test [2] and in test [3] were below 1 nM, 3 nM and 460 nM, respectively.

As to `Cc1cnc(COc2ccc3nc(N4CC(c5cnc(Nc6cnn(C)c6)c(C(N)=O)n5)C4)oc3c2)s1` [Example 82, 3-[(1-methyl-1H-pyrazol-4-yl)amino]-6-(1-{6-[(5-methyl-1,3-thiazol-2-yl)methoxy]-1,3-benzoxazol-2-yl}azetidin-3-yl)pyrazine-2-carboxamide], the IC50 is below 1 nM in test [1], 3 nM in test [2] and 150 nM in test [3].

Regarding `COCCOc1ccc(-c2ccc3nc(N4CC(c5cnc(Nc6cnn(C)c6)c(C(N)=O)n5)C4)oc3c2)cc1` [Example 100, 6-(1-{6-[4-(2-methoxyethoxy)phenyl]-1,3-benzoxazol-2-yl}azetidin-3-yl)-3-[(1-methyl-1H-pyrazol-4-yl)amino]pyrazine-2-carboxamide], the IC50 in test [1] was determined as 1 nM; in test [2], 4 nM; in test [3] it was 120 nM.

`CCOC(=O)C(C)(C)c1ccc2nc(N3CC(c4cnc(Nc5cnn(C)c5)c(C(N)=O)n4)C3)oc2c1` [Example 111F, ethyl 2-[2-(3-{6-carbamoyl-5-[(1-methyl-1H-pyrazol-4-yl)amino]pyrazin-2-yl}azetidin-1-yl)-1,3-benzoxazol-6-yl]-2-methylpropanoate]: the figures for the IC50 in test [1], in test [2] and in test [3] were 18 nM, 43 nM and 3230 nM, respectively.

Turning to `Cn1cc(Nc2ccc(C3CN(c4nc5ccc(OCCC(C)(C)OC(=O)CN)cc5o4)C3)nc2C(N)=O)cn1` [Example 110, 4-{[2-(3-{6-carbamoyl-5-[(1-methyl-1H-pyrazol-4-yl)amino]pyridin-2-yl}azetidin-1-yl)-1,3-benzoxazol-6-yl]oxy}-2-methylbutan-2-yl glycinate], the figures for the IC50 in test [1], in test [2] and in test [3] were below 1 nM, 1.8 nM and 280 nM, respectively.

Consider `CO[C@H]1CCN(C(=O)Cc2ccc3nc(N4CC(c5cnc(Nc6cnn(C)c6)c(C(N)=O)n5)C4)oc3c2)C1` [Example 70, 6-[1-(6-{2-[(3S)-3-methoxypyrrolidin-1-yl]-2-oxoethyl}-1,3-benzoxazol-2-yl)azetidin-3-yl]-3-[(1-methyl-1H-pyrazol-4-yl)amino]pyrazine-2-carboxamide], for which the IC50 is 3 nM in test [1], 20 nM in test [2] and above 12500 nM in test [3].

In the case of `COC(=O)c1ccc2nc(N3CC(c4cnc(Nc5cnn(C)c5)c(C(N)=O)n4)C3)oc2c1` [Example 13, methyl 2-(3-{6-carbamoyl-5-[(1-methyl-1H-pyrazol-4-yl)amino]pyrazin-2-yl}azetidin-1-yl)-1,3-benzoxazole-6-carboxylate], the IC50 was 2 nM in test [1], 3 nM in test [2] and 120 nM in test [3].

On to `Cn1cc(Nc2ncc(C3CN(c4nc5ccc(C6=CCOCC6)cc5o4)C3)nc2C(N)=O)cn1` [Example 11, 6-{1-[6-(3,6-dihydro-2H-pyran-4-yl)-1,3-benzoxazol-2-yl]azetidin-3-yl}-3-[(1-methyl-1H-pyrazol-4-yl)amino]pyrazine-2-carboxamide], for which the IC50 in test [1] is 1 nM; in test [2], 2 nM; in test [3] it was 280 nM.

In the case of `Cn1cc(Nc2ncc(C3CN(c4nc5ccc(C(=O)NC6CC6)cc5o4)C3)nc2C(N)=O)cn1` [Example 53, 2-(3-{6-carbamoyl-5-[(1-methyl-1H-pyrazol-4-yl)amino]pyrazin-2-yl}azetidin-1-yl)-N-cyclopropyl-1,3-benzoxazole-6-carboxamide], the IC50 worked out at 4 nM in test [1], 2 nM in test [2] and 2670 nM in test [3].

As to `Cc1ccc2nc(N3CC(c4cnc(Nc5cnn(CCO)c5)c(C(N)=O)n4)C3)oc2c1` [Example 54, 3-{[1-(2-hydroxyethyl)-1H-pyrazol-4-yl]amino}-6-[1-(6-methyl-1,3-benzoxazol-2-yl)azetidin-3-yl]pyrazine-2-carboxamide], the IC50 in test [1] was 5 nM; in test [2], 23 nM; in test [3], 620 nM.

Regarding `Cn1cc(Nc2ncc(C3CN(c4nc5ccc(OCC(C)(C)C#N)cc5o4)C3)nc2C(N)=O)cn1` [Example 107, 6-{1-[6-(2-cyano-2-methylpropoxy)-1,3-benzoxazol-2-yl]azetidin-3-yl}-3-[(1-methyl-1H-pyrazol-4-yl)amino]pyrazine-2-carboxamide], the IC50 was below 1 nM in test [1], 1.5 nM in test [2] and 46 nM in test [3].

`Cn1cc(Nc2ncc(C3CN(c4nc5ccc(/C=C/CO)cc5o4)C3)nc2C(N)=O)cn1` [Example 32A, 6-(1-{6-[(1E)-3-hydroxyprop-1-en-1-yl]-1,3-benzoxazol-2-yl}azetidin-3-yl)-3-[(1-methyl-1H-pyrazol-4-yl)amino]pyrazine-2-carboxamide]: the IC50 was below 1 nM in test [1], 2 nM in test [2] and 140 nM in test [3].

For the compound `Cn1cc(Nc2ncc(C3CN(c4nc5ccc(OC[C@H]6COCCO6)cc5o4)C3)nc2C(N)=O)cn1` [Example 48, 6-[1-(6-{[(2R)-1,4-dioxan-2-yl]methoxy}-1,3-benzoxazol-2-yl)azetidin-3-yl]-3-[(1-methyl-1H-pyrazol-4-yl)amino]pyrazine-2-carboxamide], the figures for the IC50 in test [1], in test [2] and in test [3] were 2 nM, 3 nM and 230 nM, respectively.
